The test addresses T1, human TRPV4 (Homo sapiens, UniProt Q9HBA0).
T1 construct: host or cells: tetracycline-inducible Flp-In T-REx 293 cells
Put plainly: Hypotonicity-induced Ca2+ influx (Fluo-4, FDSS). In kind it is cell-based. The method in brief: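 Flp-In T-REx 293 cells with tetracycline-induced human TRPV4, loaded with Fluo-4 for 60 min at 25 °C. Compound added 5 min before hypotonic mannitol/CaCl2 solution. Ca2+ signal recorded for 4.5 min on FDSS.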

Where [1] appears, read: Flp-In T-REx 293 cells expressing human TRPV4, examples listed under heading 'Human IC50<50 nM'.
Where [2] appears, read: Flp-In T-REx 293 cells stably expressing human TRPV4, compounds listed by potency bin (<10 nM Tables 96-1/96-2, <3 nM Table 97).

SMILES strings stand for the structures. Where only a bound is given, the exact number is not on record here.

Our source for the IC50 values is US12673946B2, “Pyrimidin-4(3H)-one derivatives as TRPV4 antagonists” (RaQualia Pharma Inc., priority 2020, dated 2026).

T1 sequence (Q9HBA0 whole entry): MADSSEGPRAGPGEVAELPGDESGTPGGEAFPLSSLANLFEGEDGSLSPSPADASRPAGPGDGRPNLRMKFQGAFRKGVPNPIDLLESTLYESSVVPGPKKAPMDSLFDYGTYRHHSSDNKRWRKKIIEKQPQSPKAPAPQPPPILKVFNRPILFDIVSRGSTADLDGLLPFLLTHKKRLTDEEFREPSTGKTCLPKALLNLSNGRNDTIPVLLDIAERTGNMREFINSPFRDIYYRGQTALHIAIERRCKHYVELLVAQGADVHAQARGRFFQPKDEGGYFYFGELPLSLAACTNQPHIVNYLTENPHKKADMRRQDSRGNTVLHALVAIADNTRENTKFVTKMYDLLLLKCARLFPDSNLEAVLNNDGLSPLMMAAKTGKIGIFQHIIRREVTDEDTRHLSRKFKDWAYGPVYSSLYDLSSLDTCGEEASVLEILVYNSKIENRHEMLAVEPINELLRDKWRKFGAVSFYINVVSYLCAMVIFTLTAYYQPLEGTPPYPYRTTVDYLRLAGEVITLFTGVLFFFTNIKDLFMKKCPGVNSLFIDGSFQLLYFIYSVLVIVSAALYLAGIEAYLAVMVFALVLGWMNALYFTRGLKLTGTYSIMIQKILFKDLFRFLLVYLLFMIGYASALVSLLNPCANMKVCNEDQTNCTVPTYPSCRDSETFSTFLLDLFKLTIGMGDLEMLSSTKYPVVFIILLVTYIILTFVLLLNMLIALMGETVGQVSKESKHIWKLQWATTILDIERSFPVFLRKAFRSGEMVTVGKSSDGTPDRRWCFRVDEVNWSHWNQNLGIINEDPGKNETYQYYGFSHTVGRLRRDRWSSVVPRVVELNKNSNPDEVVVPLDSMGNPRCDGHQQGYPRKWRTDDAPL

For `CC(C)(C)c1cccc(-c2cccc([C@@H](O)C(=O)N3CCCc4nc(C5(c6cc(C7CCCCC7)cs6)CC5)[nH]c(=O)c4C3)c2)c1` [54-7], the half-inhibitory concentration (IC50) (as a rule, the concentration at which inhibition is half-maximal) is, setting by setting: under setting [1], less than 50 nM; under setting [2], less than 10 nM.
`O=C([C@H](O)c1cccc(-c2csc3ccccc23)c1)N1CCCc2nc(C3(c4cc(C5CCCCC5)cs4)CC3)[nH]c(=O)c2C1` [54-8]: the IC50 by setting is: under setting [1], less than 50 nM; under setting [2], less than 10 nM.
As to `O=C([C@H](O)c1cccc(-c2cccc(C(F)(F)F)c2)c1)N1CCCc2nc(C3(c4cc(C5CCCCC5)cs4)CC3)[nH]c(=O)c2C1` [54-9], the half-maximal inhibitory concentration (IC50) is less than 50 nM under setting [1] and less than 10 nM under setting [2].
For `O=C([C@H](O)c1cccc(-c2cccc(Cl)c2)c1)N1CCCc2nc(C3(c4cc(C5CCCCC5)cs4)CC3)[nH]c(=O)c2C1` [54-10], in that order: less than 50 nM and less than 10 nM.
In the case of `O=C([C@H](O)c1cccc(-c2cccc(OC(F)(F)F)c2)c1)N1CCCc2nc(C3(c4cc(C5CCCCC5)cs4)CC3)[nH]c(=O)c2C1` [54-11], the IC50 under setting [1] was less than 50 nM and the concentration for half-maximal inhibition (IC50) under setting [2] was less than 10 nM.
For `CC(C)(C)c1cccc(-c2cccc([C@@H](O)C(=O)N3CCCc4nc(C5(c6cc(-c7ccccc7)cs6)CC5)[nH]c(=O)c4C3)c2)c1` [54-12], in that order: less than 50 nM and less than 10 nM.
`O=C([C@H](O)c1cccc(-c2cccc(Cl)c2)c1)N1CCCc2nc(C3(c4cc(-c5ccccc5)cs4)CC3)[nH]c(=O)c2C1` [54-13] showed a half-inhibitory concentration (IC50) under setting [1] of less than 50 nM and an IC50 under setting [2] of less than 10 nM.
For `O=C([C@H](O)c1cccc(-c2cccc(C(F)(F)F)c2)c1)N1CCCc2nc(C3(c4cc(-c5ccccc5)cs4)CC3)[nH]c(=O)c2C1` [54-14], in that order: less than 50 nM and less than 10 nM.
As for `CC(C)c1cncc(C2(c3nc4c(c(=O)[nH]3)CN(C(=O)C(O)c3cccc(-c5cccc(C(C)(C)C)c5)c3)CCC4)CC2)c1` (stereo not shown) [55-1], the IC50 runs as follows: under setting [1], less than 50 nM; under setting [2], less than 10 nM.
As for `CC(C)c1cncc(C2(c3nc4c(c(=O)[nH]3)CN(C(=O)C(O)c3cccc(-c5cccc(OC(F)(F)F)c5)c3)CCC4)CC2)c1` (stereo not shown) [55-2], the IC50 runs as follows: under setting [1], less than 50 nM; under setting [2], less than 10 nM.
Molecule `CC(C)c1cncc(C2(c3nc4c(c(=O)[nH]3)CN(C(=O)C(O)c3cccc(-c5cccc(C(F)(F)F)c5)c3)CCC4)CC2)c1` (stereo not shown) [55-3] came in with a concentration for half-maximal inhibition (IC50) under setting [1] of less than 50 nM and an IC50 under setting [2] of less than 10 nM.
In the same order, the values of `CC(C)c1cncc(C2(c3nc4c(c(=O)[nH]3)CN(C(=O)[C@H](O)c3cccc(-c5cccc(OC(F)(F)F)c5)c3)CCC4)CC2)c1` [55-4] are less than 50 nM and less than 10 nM.
The molecule `CC(C)c1cncc(C2(c3nc4c(c(=O)[nH]3)CN(C(=O)[C@H](O)c3cccc(-c5cccc(C(F)(F)F)c5)c3)CCC4)CC2)c1` [55-5] registered an IC50 under setting [1] of less than 50 nM and a 50% inhibitory concentration (IC50) under setting [2] of less than 10 nM.
Consider `CC(C)c1cncc(C2(c3nc4c(c(=O)[nH]3)CN(C(=O)[C@H](O)c3cccc(-c5cccc(C(C)(C)C)c5)c3)CCC4)CC2)c1` [55-6], for which the concentration for half-maximal inhibition (IC50) is less than 50 nM under setting [1] and less than 10 nM under setting [2].
With `CC(C)c1cncc(C2(c3nc4c(c(=O)[nH]3)CN(C(=O)[C@H](O)c3cccc(-c5cccc(F)c5)c3)CCC4)CC2)c1` [55-7], the concentration for half-maximal inhibition (IC50) is less than 50 nM under setting [1] and less than 3 nM under setting [2].
For `CC(C)c1cncc(C2(c3nc4c(c(=O)[nH]3)CN(C(=O)[C@H](O)c3cccc(-c5cccc(Cl)c5)c3)CCC4)CC2)c1` [55-8], in that order: less than 50 nM and less than 3 nM.
In the same order, the values of `CC(C)c1cncc(C2(c3nc4c(c(=O)[nH]3)CN(C(=O)[C@H](O)c3cccc(-c5ccnc(C(F)(F)F)c5)c3)CCC4)CC2)c1` [55-9] are less than 50 nM and less than 10 nM.
As for `O=C([C@H](O)c1cccc(-c2cccc(OC(F)(F)F)c2)c1)N1CCCc2nc(C3(c4cncc(C5CCCCC5)c4)CC3)[nH]c(=O)c2C1` [55-10], the IC50 by setting is: under setting [1], less than 50 nM; under setting [2], less than 10 nM.
For `O=C([C@H](O)c1cccc(-c2cccc(F)c2)c1)N1CCCc2nc(C3(c4cncc(C5CCCCC5)c4)CC3)[nH]c(=O)c2C1` [55-11], in that order: less than 50 nM and less than 10 nM.
In the same order, the values of `CC(C)(C)c1cccc(-c2cccc([C@@H](O)C(=O)N3CCCc4nc(C5(c6cncc(C7CCCCC7)c6)CC5)[nH]c(=O)c4C3)c2)c1` [55-12] are less than 50 nM and less than 10 nM.
As for `O=C([C@H](O)c1cccc(-c2cccc(Cl)c2)c1)N1CCCc2nc(C3(c4cncc(C5CCCCC5)c4)CC3)[nH]c(=O)c2C1` [55-13], the half-inhibitory concentration (IC50) was less than 50 nM under setting [1] and less than 10 nM under setting [2].
Take `O=C([C@H](O)c1cccc(-c2cccc(C(F)(F)F)c2)c1)N1CCCc2nc(C3(c4cncc(C5CCCCC5)c4)CC3)[nH]c(=O)c2C1` [55-14]: the IC50 runs as follows: under setting [1], less than 50 nM; under setting [2], less than 10 nM.
Take `O=C(C(O)c1cccc(-c2cccc(OC(F)(F)F)c2)c1)N1CCCc2nc(C3(c4cncc(-c5ccccc5)c4)CC3)[nH]c(=O)c2C1` (stereo not shown) [56-1]: the IC50 was less than 50 nM under setting [1] and less than 3 nM under setting [2].
For `O=C(C(O)c1cccc(-c2cccc(C(F)(F)F)c2)c1)N1CCCc2nc(C3(c4cncc(-c5ccccc5)c4)CC3)[nH]c(=O)c2C1` (stereo not shown) [56-2], in that order: less than 50 nM and less than 3 nM.
For `CC(C)(C)c1cccc(-c2cccc(C(O)C(=O)N3CCCc4nc(C5(c6cncc(-c7ccccc7)c6)CC5)[nH]c(=O)c4C3)c2)c1` (stereo not shown) [56-3], in that order: less than 50 nM and less than 3 nM.
In the same order, the values of `CC(C)(C)c1cccc(-c2cccc([C@@H](O)C(=O)N3CCCc4nc(C5(c6cncc(-c7ccccc7)c6)CC5)[nH]c(=O)c4C3)c2)c1` [56-4] are less than 50 nM and less than 10 nM.
Regarding `O=C([C@H](O)c1cccc(-c2cccc(C(F)(F)F)c2)c1)N1CCCc2nc(C3(c4cncc(-c5ccccc5)c4)CC3)[nH]c(=O)c2C1` [56-5], the concentration for half-maximal inhibition (IC50) was less than 50 nM under setting [1] and less than 10 nM under setting [2].
In the same order, the values of `O=C([C@H](O)c1cccc(-c2cccc(OC(F)(F)F)c2)c1)N1CCCc2nc(C3(c4cncc(-c5ccccc5)c4)CC3)[nH]c(=O)c2C1` [56-6] are less than 50 nM and less than 10 nM.
For `O=C(Cc1cccc(-c2cccc(F)c2)c1)N1CCCc2nc(C3(c4ccccc4)CC3)[nH]c(=O)c2C1` [57-1], in that order: less than 50 nM and less than 10 nM.
With `O=C(Cc1cccc(-c2cccc(OC(F)(F)F)c2)c1)N1CCCc2nc(C3(c4ccccc4)CC3)[nH]c(=O)c2C1` [57-2], the IC50 runs as follows: under setting [1], less than 50 nM; under setting [2], less than 3 nM.
In the same order, the values of `O=C(Cc1cccc(-c2cccc(C(F)(F)F)c2)c1)N1CCCc2nc(C3(c4ccccc4)CC3)[nH]c(=O)c2C1` [57-3] are less than 50 nM and less than 10 nM.
Regarding `CC(C)(C)c1cccc(-c2cccc(CC(=O)N3CCCc4nc(C5(c6ccccc6)CC5)[nH]c(=O)c4C3)c2)c1` [57-4], the 50% inhibitory concentration (IC50) under setting [1] was less than 50 nM and the IC50 under setting [2] is less than 10 nM.
For `CC(C)c1cccc(-c2cccc(CC(=O)N3CCCc4nc(C5(c6cccc(Cl)c6)CC5)[nH]c(=O)c4C3)c2)c1` [57-5], in that order: less than 50 nM and less than 10 nM.
For the molecule `CC(C)(C)c1cccc(-c2cccc(CC(=O)N3CCCc4nc(C5(c6cccc(Cl)c6)CC5)[nH]c(=O)c4C3)c2)c1` [57-6], the IC50 by setting is: under setting [1], less than 50 nM; under setting [2], less than 10 nM.
As to `O=C(Cc1cccc(-c2cccc(C(F)(F)F)n2)c1)N1CCCc2nc(C3(c4cccc(Cl)c4)CC3)[nH]c(=O)c2C1` [57-7], the IC50 reads like this: under setting [1], less than 50 nM; under setting [2], less than 10 nM.
Consider `O=C(Cc1cccc(-c2cccc(OC(F)(F)F)c2)c1)N1CCCc2nc(C3(c4cccc(Cl)c4)CC3)[nH]c(=O)c2C1` [57-8], for which the IC50 under setting [1] is less than 50 nM and the IC50 under setting [2] was less than 10 nM.
For `O=C(Cc1cccc(-c2cc(F)cc(Cl)c2)c1)N1CCCc2nc(C3(c4cccc(Cl)c4)CC3)[nH]c(=O)c2C1` [57-9], in that order: less than 50 nM and less than 10 nM.
For the molecule `O=C(N1CCCc2nc(C3(c4ccccc4)CC3)[nH]c(=O)c2C1)C(F)(F)c1cccc(-c2cccc(C(F)(F)F)c2)c1` [58-1], the concentration for half-maximal inhibition (IC50) runs as follows: under setting [1], less than 50 nM; under setting [2], less than 10 nM.
For the molecule `CC(C)(C)c1cccc(-c2cccc(C(F)(F)C(=O)N3CCCc4nc(C5(c6ccccc6)CC5)[nH]c(=O)c4C3)c2)c1` [58-2], the concentration for half-maximal inhibition (IC50) reads like this: under setting [1], less than 50 nM; under setting [2], less than 10 nM.
With `CC(C)Oc1cccc(-c2cccc(C(F)(F)C(=O)N3CCCc4nc(C5(c6ccccc6)CC5)[nH]c(=O)c4C3)c2)c1` [58-3], the 50% inhibitory concentration (IC50) under setting [1] is less than 50 nM and the IC50 under setting [2] is less than 10 nM.
In the same order, the values of `O=C(N1CCCc2nc(C3(c4ccccc4)CC3)[nH]c(=O)c2C1)C(F)(F)c1cccc(-c2cccc(C3CC3)c2)c1` [58-4] are less than 50 nM and less than 10 nM.
For `O=C(N1CCCc2nc(C3(c4ccccc4)CC3)[nH]c(=O)c2C1)C(F)(F)c1cccc(-c2cccc(OC(F)(F)F)c2)c1` [58-5], in that order: less than 50 nM and less than 10 nM.
Consider `CC(C)N(Cc1ccccc1)C(=O)c1csc(C2(c3nc4c(c(=O)[nH]3)CN(C(=O)[C@H](O)c3cccc(C(F)(F)F)c3)CCC4)CC2)c1` [59-1], for which the IC50 by setting is: under setting [1], less than 50 nM; under setting [2], less than 10 nM.
For `CN(C(=O)c1csc(C2(c3nc4c(c(=O)[nH]3)CN(C(=O)[C@H](O)c3cccc(C(F)(F)F)c3)CCC4)CC2)c1)C1CCCCC1` [59-2], in that order: less than 50 nM and less than 10 nM.
For `CN(Cc1ccccc1)C(=O)c1csc(C2(c3nc4c(c(=O)[nH]3)CN(C(=O)[C@H](O)c3cccc(C(F)(F)F)c3)CCC4)CC2)c1` [59-3], in that order: less than 50 nM and less than 10 nM.
With `O=C(c1csc(C2(c3nc4c(c(=O)[nH]3)CN(C(=O)[C@H](O)c3cccc(C(F)(F)F)c3)CCC4)CC2)c1)N1Cc2ccccc2C1` [59-4], the IC50 under setting [1] was less than 50 nM.
